Data published in ChEMBL document CHEMBL3044888, “Fungicidal activity of indole derivatives against some plant pathogenic fungi” (J Pestic Sci, 2010).
≈ marks a conversion by molar mass, not a printed value.

What was measured:
Macrophomina phaseolina [1] = assay: In vivo effect on peroxidase activity in Macrophomina phaseoli assessed as DNA content at 0.1 times of IC50 concentration (reference value: 15.5 +/- 0.5 mg/l); type: functional
Macrophomina phaseolina [2] = assay: In vivo effect on peroxidase activity in Macrophomina phaseoli assessed as RNA content at 0.5 times of IC50 concentration (reference value: 16.1 +/- 0.4 mg/l); type: functional
Rhizoctonia solani [3] = assay: In vivo effect on peroxidase activity in Rhizoctonia solani assessed as total soluble sugar content per gram of dry hyphal at 0.1 times of IC50 concentration (reference value: 20.1 +/- 0.8 mg/g of dry weight); type: functional
Macrophomina phaseolina [4] = assay: In vivo effect on peroxidase activity in Macrophomina phaseoli assessed as reduced sugar content per gram of dry hyphal at 0.5 times of IC50 concentration (reference value: 7.3 +/- 0.5 mg/g of dry weight); type: functional
Macrophomina phaseolina [5] = assay: In vivo effect on peroxidase activity in Macrophomina phaseoli assessed as reduced sugar content per gram of dry hyphal at 0.25 times of IC50 concentration (reference value: 7.3 +/- 0.5 mg/g of dry weight); type: functional
Rhizoctonia solani [6] = assay: In vivo effect on peroxidase activity in Rhizoctonia solani assessed as DNA content at 0.25 times of IC50 concentration (reference value: 24 +/- 0.7 mg/l); type: functional
Rhizoctonia solani [7] = assay: In vivo effect on peroxidase activity in Rhizoctonia solani assessed as DNA content at 0.1 times of IC50 concentration (reference value: 24 +/- 0.7 mg/l); type: functional
Rhizoctonia solani [8] = assay: In vivo effect on peroxidase activity in Rhizoctonia solani assessed as RNA content at 2 times of IC50 concentration (reference value: 25 +/- 0.7 mg/l); type: functional
Rhizoctonia solani [9] = assay: In vivo effect on peroxidase activity in Rhizoctonia solani assessed as RNA content at 0.5 times of IC50 concentration (reference value: 25 +/- 0.7 mg/l); type: functional
Rhizoctonia solani [10] = assay: In vivo effect on peroxidase activity in Rhizoctonia solani assessed as RNA content at 0.25 times of IC50 concentration (reference value: 25 +/- 0.7 mg/l); type: functional
[11] = tested on: Globisporangium debaryanum; assay: In vivo effect on peroxidase activity in Pythium debaryanum assessed as DNA content at 2 times of IC50 concentration (reference value: 31 +/- 0.8 mg/l); type: functional
[12] = tested on: Globisporangium debaryanum; assay: In vivo effect on peroxidase activity in Pythium debaryanum assessed as DNA content at 1 times of IC50 concentration (reference value: 31 +/- 0.8 mg/l); type: functional
[13] = tested on: Globisporangium debaryanum; assay: In vivo effect on peroxidase activity in Pythium debaryanum assessed as RNA content at 2 times of IC50 concentration (reference value: 32.2 +/- 0.7 mg/l); type: functional
[14] = tested on: Globisporangium debaryanum; assay: In vivo effect on peroxidase activity in Pythium debaryanum assessed as RNA content at 0.1 times of IC50 concentration (reference value: 32.2 +/- 0.7 mg/l); type: functional
Rhizoctonia solani [15] = assay: In vivo effect on peroxidase activity in Rhizoctonia solani assessed as non-reducing sugar content per gram of dry hyphal at 0.5 times of IC50 concentration (reference value: 2.8 +/- 0.2 mg/g of dry weight); type: functional
Rhizoctonia solani [16] = assay: In vivo effect on peroxidase activity in Rhizoctonia solani assessed as non-reducing sugar content per gram of dry hyphal at 0.1 times of IC50 concentration (reference value: 2.8 +/- 0.2 mg/g of dry weight); type: functional
Rhizoctonia solani [17] = assay: In vivo effect on peroxidase activity in Rhizoctonia solani assessed as reduced sugar content per gram of dry hyphal at 1 times of IC50 concentration (reference value: 17.3 +/- 1 mg/g of dry weight); type: functional
Macrophomina phaseolina [18] = assay: In vivo effect on peroxidase activity in Macrophomina phaseoli assessed as total soluble sugar content per gram of dry hyphal at 0.5 times of IC50 concentration (reference value: 19.3 +/- 0.7 mg/g of dry weight); type: functional
Macrophomina phaseolina [19] = assay: In vivo effect on peroxidase activity in Macrophomina phaseoli assessed as total soluble sugar content per gram of dry hyphal at 0.25 times of IC50 concentration (reference value: 19.3 +/- 0.7 mg/g of dry weight); type: functional
Macrophomina phaseolina [20] = assay: In vivo effect on peroxidase activity in Macrophomina phaseoli assessed as total soluble sugar content per gram of dry hyphal at 0.1 times of IC50 concentration (reference value: 19.3 +/- 0.7 mg/g of dry weight); type: functional
Macrophomina phaseolina [21] = assay: In vivo effect on peroxidase activity in Macrophomina phaseoli assessed as non-reducing sugar content per gram of dry hyphal at 1 times of IC50 concentration (reference value: 12 +/- 0.8 mg/g of dry weight); type: functional
Macrophomina phaseolina [22] = assay: In vivo effect on peroxidase activity in Macrophomina phaseoli assessed as non-reducing sugar content per gram of dry hyphal at 0.5 times of IC50 concentration (reference value: 12 +/- 0.8 mg/g of dry weight); type: functional
Macrophomina phaseolina [23] = assay: In vivo effect on peroxidase activity in Macrophomina phaseoli assessed as non-reducing sugar content per gram of dry hyphal at 0.25 times of IC50 concentration (reference value: 12 +/- 0.8 mg/g of dry weight); type: functional
Macrophomina phaseolina [24] = assay: In vivo effect on peroxidase activity in Macrophomina phaseoli assessed as non-reducing sugar content per gram of dry hyphal at 0.1 times of IC50 concentration (reference value: 12 +/- 0.8 mg/g of dry weight); type: functional
Macrophomina phaseolina [25] = assay: In vivo effect on peroxidase activity in Macrophomina phaseoli assessed as reduced sugar content per gram of dry hyphal at 1 times of IC50 concentration (reference value: 7.3 +/- 0.5 mg/g of dry weight); type: functional
Fusarium culmorum [26] = assay: In vivo effect on peroxidase activity in Fusarium culmorum assessed as DNA content at 0.5 times of IC50 concentration (reference value: 49.5 +/- 1.6 mg/l); type: functional
Fusarium culmorum [27] = assay: In vivo effect on peroxidase activity in Fusarium culmorum assessed as DNA content at 0.1 times of IC50 concentration (reference value: 49.5 +/- 1.6 mg/l); type: functional
Fusarium culmorum [28] = assay: In vivo effect on peroxidase activity in Fusarium culmorum assessed as RNA content at 2 times of IC50 concentration (reference value: 51.5 +/- 1.5 mg/l); type: functional
Fusarium culmorum [29] = assay: In vivo effect on peroxidase activity in Fusarium culmorum assessed as RNA content at 0.5 times of IC50 concentration (reference value: 51.5 +/- 1.5 mg/l); type: functional
Fusarium culmorum [30] = assay: In vivo effect on peroxidase activity in Fusarium culmorum assessed as RNA content at 0.25 times of IC50 concentration (reference value: 51.5 +/- 1.5 mg/l); type: functional
[31] = tested on: Globisporangium debaryanum; assay: Inhibition of peroxidase activity in Pythium debaryanum at 0.25 times of IC50 concentration
Fusarium culmorum [32] = assay: Inhibition of peroxidase activity in Fusarium culmorum at 0.25 times of IC50 concentration
Fusarium culmorum [33] = assay: Inhibition of peroxidase activity in Fusarium culmorum at 0.1 times of IC50 concentration
[34] = tested on: Globisporangium debaryanum; assay: Fungicidal activity against Pythium debaryanum assessed as inhibition of hyphal growth by radial growth test; type: functional, organism-based
Rhizoctonia solani [35] = assay: Fungicidal activity against Rhizoctonia solani assessed as inhibition of hyphal growth by radial growth test; type: functional, organism-based
Fusarium culmorum [36] = assay: Inhibition of peroxidase activity in Fusarium culmorum at 0.5 times of IC50 concentration

SMILES | Activity (Macrophomina phaseolina [1]) [mg/L] | Activity (Macrophomina phaseolina [2]) [mg/L] | Activity (Rhizoctonia solani [3]) [mg] | Activity (Macrophomina phaseolina [4]) [mg] | Activity (Macrophomina phaseolina [5]) [mg] | Activity (Rhizoctonia solani [6]) [mg/L] | Activity (Rhizoctonia solani [7]) [mg/L] | Activity (Rhizoctonia solani [8]) [mg/L] | Activity (Rhizoctonia solani [9]) [mg/L] | Activity (Rhizoctonia solani [10]) [mg/L] | Activity [11] [mg/L] | Activity [12] [mg/L] | Activity [13] [mg/L] | Activity [14] [mg/L] | Activity (Rhizoctonia solani [15]) [mg] | Activity (Rhizoctonia solani [16]) [mg] | Activity (Rhizoctonia solani [17]) [mg] | Activity (Macrophomina phaseolina [18]) [mg] | Activity (Macrophomina phaseolina [19]) [mg] | Activity (Macrophomina phaseolina [20]) [mg] | also measured
CC(=O)n1c(-c2ccccc2)cc2ccccc21 | 11.7 | 8.6 | 12.2 | 20.8 | 14.8 | 25.2 | 23.2 | 36.1 | 27.9 | 26.2 | 21.6 | 17.5 | 22.5 | 27 | 0.4 | 2.5 | 2.6 | 31 | 22.2 | 4.2 | Activity (Macrophomina phaseolina [21]): 8.9 mg; Activity (Macrophomina phaseolina [22]): 10.2 mg; Activity (Macrophomina phaseolina [23]): 7.4 mg; Activity (Macrophomina phaseolina [24]): 1.7 mg; Activity (Macrophomina phaseolina [25]): 25.8 mg; Activity (Fusarium culmorum [26]): 28 mg/L; Activity (Fusarium culmorum [27]): 43.6 mg/L; Activity (Fusarium culmorum [28]): 20.3 mg/L; Activity (Fusarium culmorum [29]): 29.2 mg/L; Activity (Fusarium culmorum [30]): 31.1 mg/L; inhibition [31]: 3%; inhibition (Fusarium culmorum [32]): 23.7%; inhibition (Fusarium culmorum [33]): 85%; IC50 [34]: 15 µg/mL (≈ 63.8 µM); IC50 (Rhizoctonia solani [35]): 37.5 µg/mL (≈ 159 µM); inhibition (Fusarium culmorum [36]): -7.9%
c1ccc(-c2cc3ccccc3[nH]2)cc1 [2-PHENYL-1H-INDOLE] | 6.4 | 8.3 | 58.4 | 2.9 | 4.6 | 28.9 | 28.3 | 28 | 30.8 | 30 | 23.3 | 29.4 | 24.2 | 32.1 | 3.1 | 14.1 | 7.7 | 4.3 | 9.7 | 8.7 | Activity (Macrophomina phaseolina [21]): 1.3 mg; Activity (Macrophomina phaseolina [22]): 1.4 mg; Activity (Macrophomina phaseolina [23]): 5.1 mg; Activity (Macrophomina phaseolina [24]): 2.4 mg; Activity (Macrophomina phaseolina [25]): 5.8 mg; Activity (Fusarium culmorum [26]): 18 mg/L; Activity (Fusarium culmorum [27]): 28.6 mg/L; Activity (Fusarium culmorum [28]): 24.7 mg/L; Activity (Fusarium culmorum [29]): 18.7 mg/L; Activity (Fusarium culmorum [30]): 24.3 mg/L; inhibition [31]: 3.7%; inhibition (Fusarium culmorum [32]): 26.2%; inhibition (Fusarium culmorum [33]): 7.5%; IC50 [34]: 17.7 µg/mL (≈ 91.6 µM); IC50 (Rhizoctonia solani [35]): 34.6 µg/mL (≈ 179 µM); inhibition (Fusarium culmorum [36]): 53.8%
